Results taken from publication PMC9061857, “A fluorogenic probe for granzyme B enables in-biopsy evaluation and screening of response to anticancer immunotherapies” (Nature Communications, 2022).
Where no end group is shown, it is not given here.

Columns and labels:
hGzmB = experiment: Limit of detection of hGzmB by probe fluorescence; assay type: biochemical, human; settings: H5 25 μM, 37 °C, emission 530 nm, no washing steps (Fig. S4)
Procedure: Supplementary Figure 1. Reactivity of fluorogenic substrates against human GzmB and limits of detection. a) Reaction conversion rates (by HPLC-UV detection at 350 nm) for Ac-IEPD-AMC (50 μM) in TRIS buffer (see Methods) at 37 °C containing different concentrations of hGzmB. Data presented as mean values±SEM (n=3 independent biological experiments). b) Reaction conversion rates (by HPLC-UV detection at 500 nm) for the tetrapeptide T1 (25 μM) in TRIS buffer at 37 °C containing different concentrations of hGzmB. Data presented as mean values±SEM (3 independent biological experiments).
(§1) Source data provided as a Source Data file.
(§2) (1 picture or pasted object on this page, not shown here)
Supplementary Figure 4. Comparative enzyme selectivity and limit of detection for […]
Ac-IEPD-AMC (all at 25 μM) after incubation for 90 min at 37 °C with hGzmB (light gray bars), human caspase-3 (dark gray bars) and hGzmA (white bars) (all enzymes used at 20 nM). Data presented as mean values±SEM (n=3). Excitation wavelengths: 450 nm (for […]
450 nm (for Ac-IEPD-AMC). b) Limit of detection of hGzmB by fluorescence emission […]
presented as mean values±SD (2 independent experiments with 3 technical replicates).

mKate-E0771 cells = experiment: MTT cell viability assay; assay type: cell-based, mouse; settings: 1 h; for Cell viability (MTT), normalized to untreated cells: 37 °C
Procedure: Supplementary Figure 9. Cell viability assays in mKate-E0771 cancer cells. mKate-E0771 cells were plated in 96-well plates (50,000 cells well-1) and incubated at the […]
Cell viability was determined using a commercially available MTT kit (Invitrogen) with values normalized to untreated cells.
Data presented as mean values±SEM (2 independent experiments with 3 replicates for each). P values were obtained from ONE-ANOVA tests with multiple comparisons.
as §1, §2

“IEPDAL [H5, FRET hexapeptide IEPDAL with BODIPY-FL fluorophore at the N-terminal end and Dabcyl quencher]” gave a LoD (hGzmB) of 6 pM, a Cell viability (MTT), normalized to untreated cells (mKate-E0771 cells; H5 3.1 (head prints mM), Data 1) of 107% and a Cell viability (MTT), normalized to untreated cells (mKate-E0771 cells; H5 3.1 (head prints mM), Data 2) of 102%. The Cell viability (MTT), normalized to untreated cells (mKate-E0771 cells; H5 3.1 (head prints mM), Data 3) was 89%, the Cell viability (MTT), normalized to untreated cells (mKate-E0771 cells; H5 3.1 (head prints mM), Data 4) was 85% and the Cell viability (MTT), normalized to untreated cells (mKate-E0771 cells; H5 3.1 (head prints mM), Data 5) was 94%. For the same substance, the Cell viability (MTT), normalized to untreated cells (mKate-E0771 cells; H5 3.1 (head prints mM), Data 6) was 89%, the Cell viability (MTT), normalized to untreated cells (mKate-E0771 cells; H5 6.3 (head prints mM), Data 1) was 99% and the Cell viability (MTT), normalized to untreated cells (mKate-E0771 cells; H5 6.3 (head prints mM), Data 2) was 93%. It also gave a Cell viability (MTT), normalized to untreated cells (mKate-E0771 cells; H5 6.3 (head prints mM), Data 3) of 97%, a Cell viability (MTT), normalized to untreated cells (mKate-E0771 cells; H5 6.3 (head prints mM), Data 4) of 95% and a Cell viability (MTT), normalized to untreated cells (mKate-E0771 cells; H5 6.3 (head prints mM), Data 5) of 89%. It also gave a Cell viability (MTT), normalized to untreated cells (mKate-E0771 cells; H5 6.3 (head prints mM), Data 6) of 90%, a Cell viability (MTT), normalized to untreated cells (mKate-E0771 cells; H5 12.5 (head prints mM), Data 1) of 107% and a Cell viability (MTT), normalized to untreated cells (mKate-E0771 cells; H5 12.5 (head prints mM), Data 2) of 106%. For the same substance, the Cell viability (MTT), normalized to untreated cells (mKate-E0771 cells; H5 12.5 (head prints mM), Data 3) was 99%, the Cell viability (MTT), normalized to untreated cells (mKate-E0771 cells; H5 12.5 (head prints mM), Data 4) was 96% and the Cell viability (MTT), normalized to untreated cells (mKate-E0771 cells; H5 12.5 (head prints mM), Data 5) was 84%. The Cell viability (MTT), normalized to untreated cells (mKate-E0771 cells; H5 12.5 (head prints mM), Data 6) was 88%, the Cell viability (MTT), normalized to untreated cells (mKate-E0771 cells; H5 25 (head prints mM), Data 1) was 107% and the Cell viability (MTT), normalized to untreated cells (mKate-E0771 cells; H5 25 (head prints mM), Data 2) was 102%. For the same substance, the Cell viability (MTT), normalized to untreated cells (mKate-E0771 cells; H5 25 (head prints mM), Data 3) was 99%, the Cell viability (MTT), normalized to untreated cells (mKate-E0771 cells; H5 25 (head prints mM), Data 4) was 76% and the Cell viability (MTT), normalized to untreated cells (mKate-E0771 cells; H5 25 (head prints mM), Data 5) was 81%. The Cell viability (MTT), normalized to untreated cells (mKate-E0771 cells; H5 25 (head prints mM), Data 6) was 81% and the cytotoxicity (mKate-E0771 cells; MTT, 37 °C (Fig. S9)) was “not cytotoxic”.
